Columns and labels:
P-Akt (S473) = experiment: Cell based AlphaLISA assay, inhibition of P-Akt (S473) in MDA-MB-468 cells; conditions: Homo sapiens, 4 h, 0.017-1,000 nM, two to four hours at 37° C., AlphaLisa SureFire Ultra, read-out: pIC50 for Inhibition of mTORC1 and mTORC2 Substrate Phosphorylation, p-AKT1/2/3-(S473) (converted)
Procedure: (§1) Cell Based AlphaLISA Assays For Determining IC50 For Inhibition of P-Akt (S473), P-4E-BP1 (T37/46), and P-P70S6K (T389) in MDA-MB-468 Cells
(§2) mTOR Kinase Cellular Assay
(§3) To measure functional activity of mTORC1 and mTORC2 in cells the phosphorylation of 4EBP1 (Thr37/46) and P70S6K (Thr389), and AKT1/2/3 (Ser473) was monitored using AlphaLisa SureFire Ultra Kits (Perkin Elmer). […] Incubations are terminated by removal of the assay buffer and addition of lysis buffer provided with the assay kit. Samples are processed according to the manufacturer's instructions. The Alpha signal from the respective phosphoproteins is measured in duplicate using a microplate reader (Envision, Perkin-Elmer or Spectramax M5, Molecular Devices). Inhibitor concentration response curves are analyzed using normalized IC50 regression curve fitting with control based normalization.

P-P70S6K (T389) = experiment: Cell based AlphaLISA assay, inhibition of P-P70S6K (T389) in MDA-MB-468 cells; conditions: Homo sapiens, 4 h, 0.017-1,000 nM, two to four hours at 37° C., AlphaLisa SureFire Ultra, read-out: pIC50 for Inhibition of mTORC1 and mTORC2 Substrate Phosphorylation, p-P70S6K-(T389) (converted)
Procedure: as §1, §2, §3

P-4E-BP1 (T37/46) = experiment: Cell based AlphaLISA assay, inhibition of P-4E-BP1 (T37/46) in MDA-MB-468 cells; conditions: Homo sapiens, 4 h, 0.017-1,000 nM, two to four hours at 37° C., AlphaLisa SureFire Ultra, read-out: pIC50 for Inhibition of mTORC1 and mTORC2 Substrate Phosphorylation, p-4E-BP1-(T37/46) (converted)
Procedure: as §1, §2, §3

Structure (SMILES) | IC50 (P-Akt (S473)) [µM] | IC50 (P-P70S6K (T389)) [µM] | IC50 (P-4E-BP1 (T37/46)) [µM]
CO[C@H]1C[C@@H]2CC[C@@H](C)[C@@](O)(O2)C(=O)C(=O)N2CCCC[C@H]2C(=O)O[C@H]([C@H](C)C[C@@H]2CC[C@@H](O)[C@H](OC)C2)C[C@@H](O)[C@H](C)/C=C(\C)[C@@H](O)[C@@H](OC)C(=NOCC(=O)NCCOCCOCCOCCOCCOCCOCCOCCOCCC(=O)NCCCCn2nc(-c3ccc4oc(N)nc4c3)c3c(N)ncnc32)[C@H](C)C[C@H](C)/C=C/C=C/C=C/1C [Example 1] | 0.0316 to 1 | 0.001 to 0.01 | 0.00316 to 0.0316
CO[C@H]1C[C@@H]2CC[C@@H](C)[C@@](O)(O2)C(=O)C(=O)N2CCCC[C@H]2C(=O)O[C@H]([C@H](C)C[C@@H]2CC[C@@H](O)[C@H](OC)C2)C[C@@H](O)[C@H](C)/C=C(\C)[C@@H](O)[C@@H](OC)C(=NOCC(=O)NCCOCCOCCOCCOCCOCCOCCC(=O)NCCCCn2nc(-c3ccc4oc(N)nc4c3)c3c(N)ncnc32)[C@H](C)C[C@H](C)/C=C/C=C/C=C/1C [Example 2] | 0.0316 to 1 | < 0.001 | 0.00316 to 0.0316
CO[C@H]1C[C@@H]2CC[C@@H](C)[C@@](O)(O2)C(=O)C(=O)N2CCCC[C@H]2C(=O)O[C@H]([C@H](C)C[C@@H]2CC[C@@H](O)[C@H](OC)C2)C[C@@H](O)[C@H](C)/C=C(\C)[C@@H](O)[C@@H](OC)/C(=N/OCC(=O)NCCOCCOCCOCCOCCOCCOCCC(=O)NCCCCn2nc(-c3ccc4oc(N)nc4c3)c3c(N)ncnc32)[C@H](C)C[C@H](C)/C=C/C=C/C=C/1C [Example 3] | 0.0316 to 1 | < 0.001 | 0.00316 to 0.0316
CO[C@H]1C[C@@H]2CC[C@@H](C)[C@@](O)(O2)C(=O)C(=O)N2CCCC[C@H]2C(=O)O[C@H]([C@H](C)C[C@@H]2CC[C@@H](O)[C@H](OC)C2)C[C@@H](O)[C@H](C)/C=C(\C)[C@@H](O)[C@@H](OC)C(=NOCC(=O)NCCOCCOCCOCCOCCOCCOCCOCCOCCC(=O)N2CCc3cc(Cn4nc(-c5ccc6oc(N)nc6c5)c5c(N)ncnc54)ccc3C2)[C@H](C)C[C@H](C)/C=C/C=C/C=C/1C [Example 4] | 0.0316 to 1 | < 0.001 | 0.00316 to 0.0316
CO[C@H]1C[C@@H]2CC[C@@H](C)[C@@](O)(O2)C(=O)C(=O)N2CCCC[C@H]2C(=O)O[C@H]([C@H](C)C[C@@H]2CC[C@@H](O)[C@H](OC)C2)C[C@@H](O)[C@H](C)/C=C(\C)[C@@H](O)[C@@H](OC)C(=NOCC(=O)NCCOCCOCCOCCOCCOCCOCCC(=O)N2CCc3cc(Cn4nc(-c5ccc6oc(N)nc6c5)c5c(N)ncnc54)ccc3C2)[C@H](C)C[C@H](C)/C=C/C=C/C=C/1C [Example 5] | 0.0316 to 1 | < 0.001 | < 0.00316
CO[C@H]1C[C@@H]2CC[C@@H](C)[C@@](O)(O2)C(=O)C(=O)N2CCCC[C@H]2C(=O)O[C@H]([C@H](C)C[C@@H]2CC[C@@H](O)[C@H](OC)C2)C[C@@H](O)[C@H](C)/C=C(\C)[C@@H](O)[C@@H](OC)C(=NOCC(=O)NCCOCCOCCOCCOCCOCCOCCOCCOCCC(=O)NCCCCn2nc(-c3cnc4[nH]ccc4c3)c3c(N)ncnc32)[C@H](C)C[C@H](C)/C=C/C=C/C=C/1C [Example 6] | > 1 | 0.001 to 0.01 | 0.00316 to 0.0316
CO[C@H]1C[C@@H]2CC[C@@H](C)[C@@](O)(O2)C(=O)C(=O)N2CCCC[C@H]2C(=O)O[C@H]([C@H](C)C[C@@H]2CC[C@@H](O)[C@H](OC)C2)C[C@@H](O)[C@H](C)/C=C(\C)[C@@H](O)[C@@H](OC)C(=NOCC(=O)NCCOCCOCCOCCOCCOCCOCCC(=O)NCCCCn2nc(-c3cnc4[nH]ccc4c3)c3c(N)ncnc32)[C@H](C)C[C@H](C)/C=C/C=C/C=C/1C [Example 7] | > 1 | < 0.001 | 0.00316 to 0.0316
CO[C@H]1C[C@@H]2CC[C@@H](C)[C@@](O)(O2)C(=O)C(=O)N2CCCC[C@H]2C(=O)O[C@H]([C@H](C)C[C@@H]2CC[C@@H](O)[C@H](OC)C2)C[C@@H](OC)[C@H](C)/C=C(\C)[C@@H](O)[C@@H](OC)C(=NOCC(=O)NCCOCCOCCOCCOCCOCCOCCOCCOCCC(=O)NCCCCn2nc(-c3cnc4[nH]ccc4c3)c3c(N)ncnc32)[C@H](C)C[C@H](C)/C=C/C=C/C=C/1C [Example 8] | > 1 | < 0.001 | 0.00316 to 0.0316
CO[C@H]1C[C@@H]2CC[C@@H](C)[C@@](O)(O2)C(=O)C(=O)N2CCCC[C@H]2C(=O)O[C@H]([C@H](C)C[C@@H]2CC[C@@H](O)[C@H](OC)C2)C[C@@H](O)[C@H](C)/C=C(\C)[C@@H](O)[C@@H](OC)C(=NOCC(=O)NCCOCCOCCOCCOCCOCCOCCOCCOCCC(=O)N2CCc3cc(Cn4nc(-c5cnc6[nH]ccc6c5)c5c(N)ncnc54)ccc3C2)[C@H](C)C[C@H](C)/C=C/C=C/C=C/1C [Example 9] | > 1 | 0.001 to 0.01 | 0.00316 to 0.0316
CO[C@H]1C[C@@H]2CC[C@@H](C)[C@@](O)(O2)C(=O)C(=O)N2CCCC[C@H]2C(=O)O[C@H]([C@H](C)C[C@@H]2CC[C@@H](O)[C@H](OC)C2)C[C@@H](OC)[C@H](C)/C=C(\C)[C@@H](O)[C@@H](OC)C(=NOCC(=O)NCCOCCOCCOCCOCCOCCOCCOCCOCCC(=O)N2CCc3cc(Cn4nc(-c5cnc6[nH]ccc6c5)c5c(N)ncnc54)ccc3C2)[C@H](C)C[C@H](C)/C=C/C=C/C=C/1C [Example 11] | > 1 | 0.001 to 0.01 | 0.00316 to 0.0316
COc1ccc(-c2ccc3ncc4c(c3c2)n(-c2ccc(N3CCN(C(=O)CCOCCOCCOCCOCCOCCOCCNC(=O)CON=C5[C@H](C)C[C@H](C)/C=C/C=C/C=C(\C)[C@@H](OC)C[C@@H]6CC[C@@H](C)[C@@](O)(O6)C(=O)C(=O)N6CCCC[C@H]6C(=O)O[C@H]([C@H](C)C[C@@H]6CC[C@@H](O)[C@H](OC)C6)C[C@@H](O)[C@H](C)/C=C(\C)[C@@H](O)[C@H]5OC)CC3)c(C(F)(F)F)c2)c(=O)n4C)cn1 [Example 13] | 0.00316 to 0.0316 | < 0.001 | < 0.00316
COc1ccc(-c2ccc3ncc4c(c3c2)n(-c2ccc(N3CCN(c5ncc(CNC(=O)CCOCCOCCOCCOCCOCCOCCNC(=O)CON=C6[C@H](C)C[C@H](C)/C=C/C=C/C=C(\C)[C@@H](OC)C[C@@H]7CC[C@@H](C)[C@@](O)(O7)C(=O)C(=O)N7CCCC[C@H]7C(=O)O[C@H]([C@H](C)C[C@@H]7CC[C@@H](O)[C@H](OC)C7)C[C@@H](O)[C@H](C)/C=C(\C)[C@@H](O)[C@H]6OC)cn5)CC3)c(C(F)(F)F)c2)c(=O)n4C)cn1 [Example 14] | 0.0316 to 1 | < 0.001 | 0.00316 to 0.0316
CO[C@H]1C[C@@H]2CC[C@@H](C)[C@@](O)(O2)C(=O)C(=O)N2CCCC[C@H]2C(=O)O[C@H]([C@H](C)C[C@@H]2CC[C@@H](O)[C@H](OC)C2)C[C@@H](O)[C@H](C)/C=C(\C)[C@@H](O)[C@@H](OC)C(=NOCC(=O)N2CCc3nc(N4CCN(c5ncc(C(=O)NCCOCCOCCOCCC(=O)NCCCCn6nc(-c7ccc8oc(N)nc8c7)c7c(N)ncnc76)cn5)CC4)ncc3C2)[C@H](C)C[C@H](C)/C=C/C=C/C=C/1C [Example 15] | 0.0316 to 1 | 0.001 to 0.01 | 0.00316 to 0.0316
CO[C@H]1C[C@@H]2CC[C@@H](C)[C@@](O)(O2)C(=O)C(=O)N2CCCC[C@H]2C(=O)O[C@H]([C@H](C)C[C@@H]2CC[C@@H](O)[C@H](OC)C2)C[C@@H](O)[C@H](C)/C=C(\C)[C@@H](O)[C@@H](OC)C(=NOCC(=O)N2CCc3nc(N4CCN(c5ncc(C(=O)NCCOCCOCCC(=O)NCCCCn6nc(-c7ccc8oc(N)nc8c7)c7c(N)ncnc76)cn5)CC4)ncc3C2)[C@H](C)C[C@H](C)/C=C/C=C/C=C/1C [Example 16] | > 1 | 0.001 to 0.01 | 0.00316 to 0.0316
CO[C@H]1C[C@@H]2CC[C@@H](C)[C@@](O)(O2)C(=O)C(=O)N2CCCC[C@H]2C(=O)O[C@H]([C@H](C)C[C@@H]2CC[C@@H](O)[C@H](OC)C2)C[C@@H](O)[C@H](C)/C=C(\C)[C@@H](O)[C@@H](OC)C(=NOCC(=O)N2CCc3nc(N4CCN(c5ncc(C(=O)NCCOCCC(=O)NCCCCn6nc(-c7ccc8oc(N)nc8c7)c7c(N)ncnc76)cn5)CC4)ncc3C2)[C@H](C)C[C@H](C)/C=C/C=C/C=C/1C [Example 17] | > 1 | 0.001 to 0.01 | 0.00316 to 0.0316
CO[C@H]1C[C@@H]2CC[C@@H](C)[C@@](O)(O2)C(=O)C(=O)N2CCCC[C@H]2C(=O)O[C@H]([C@H](C)C[C@@H]2CC[C@@H](O)[C@H](OC)C2)C[C@@H](O)[C@H](C)/C=C(\C)[C@@H](O)[C@@H](OC)C(=NOCC(=O)N2CCc3nc(N4CCN(c5ncc(C(=O)NCCOCCC(=O)N6CCc7cc(Cn8nc(-c9ccc%10oc(N)nc%10c9)c9c(N)ncnc98)ccc7C6)cn5)CC4)ncc3C2)[C@H](C)CC(C)/C=C/C=C/C=C/1C (stereo partly drawn) [Example 18] | > 1 | 0.001 to 0.01 | 0.00316 to 0.0316

Reference: patent publication US12187746B2, “C26-linked rapamycin analogs as mTOR inhibitors” (Revolution Medicines, Inc., priority 2018, dated 2025)
